Assay results as given in patent US20240408143A1, “METHODS FOR CULTURING MESENCHYMAL STEM CELLS, COMPOSITIONS AND IMPLEMENTATIONS THEREOF” (Pandorum Technologies Private Limited, priority 2021, published 2024).
Where a name gives a salt, the structure may show the parent alone.

Experiments:
[1] = system: hBM-MSCs; assay: Yield of exosomes from primed hBM-MSCs; format: cell-based, human; conditions: priming of hBM-MSCs, compared to untreated (naïve) and other priming agents
Experimental: hBM-MSC was cultured in xeno-free media recommended by the manufacturer, hBM-MSC cells were grown to reach confluency of (80-90) % and treated with a Nrf2 activator (DMF-100 μM) for 24 hours before shifting and maintaining the cells in EV collect media for 24-72 hours (see example 3.3). After 72 hours, condition media was collected, and exosome isolation was performed using iodixanol density gradient protocol (as described in example 4.4).

[2] = system: hBM-MSCs; assay: Secretome analysis of primed hBM-MSCs by ELISA; format: cell-based, human; conditions: vs control/untreated
Experimental: hBM-MSCs were cultured in xeno free media along with a replacement of 10% and 20% of CSSC-derived conditioned media (CSSC-CM) to reach a confluence of 80-90%. The media was then subsequently shifted to EV collect for 24-72 hours and primed conditioned media was collected (as described in example 1.1, and 1.2), and exosome isolation was performed by iodixanol density gradient method (as described in example 4.4) and enriched exosomes were obtained. Homogenous fraction F9 was considered for further functional analysis. The secretome analysis was performed using ELISA, detecting the levels of HGF, VEGF, sFLT1, IL-6, NGF.
hBM-MSCs were primed with various priming agents (small molecules) and the secretome was collected (see example 3.2-3.6). The secretome analysis was performed using ELISA, and the levels of HGF, VEGF, NGF, IL-6, sFLT1, SDF1 were detected. FIGS. 6A-6F depict bar graphs of the quantification of the secreted protein levels of HGF, VEGF, NGF, IL-6, sFLT1, and SDF-1 from hBM-MSCs primed with curcumin, 4-OI, DMF, or the combination of curcumin conditioned media and DMF.

[3] = system: MSCs; assay: Quantitative real time-PCR of MSCs treated with ATRA; format: cell-based; conditions: 1, 10, 100 μmol/L
Experimental: (§1) ATRA is found to increase the viability of MSCs. This was ascertained as the MSCs were treated with various concentrations of ATRA (0.1 μM to 500 μM) for 24 and 48 hours and their viability were examined by MTT assay. […] ATRA elevated the PGE2 levels. […] ATRA increased the expression of genes involved in MSC survival, migration and angiogenesis.

[4] = system: MSCs; assay: MSC viability by MTT assay after ATRA treatment; format: cell-based; conditions: 0.1 μM to 500 μM for 24 and 48 hours; all treated MSCs except 0.1 μmol/L
Experimental: as §1

[5] = system: MSCs; assay: PGE2 levels in MSCs pre-treated with ATRA; format: cell-based; conditions: 1, 10, 100 μmol/L, dose-dependent
Experimental: as §1

[6] = system: NASH-induced liver spheroids; assay: Treatment of NASH-induced human liver spheroids, marker staining and albumin ELISA; format: cell-based; conditions: treatment at D17-D19 after NASH induction, ELISA at 24, 48, 72 hours; HGF 40 ng/ml
Experimental: The protocol for generating human liver spheroids and inducing a NASH phenotype in the human liver spheroids for the present study was as follows: A mix of primary hepatocytes and liver stellate cells from human donors were co-cultured at a 70:30 ratio (70 hepatocytes to 30 liver stellate cells). The cell mixture was seeded on ultra-low attachment plates and cultured to form viable liver spheroids. […] The NASH induction protocol was as follows: On day 7 post seeding, the spheroids were treated with 600 μM free fatty acid (FFA) mixture consisting of Oleic acid and Palmitic acid at a weight ratio of 2:1 for 6 days with media change every other day. After 6 days of FFA treatment (13 days post seeding), 20 ng/mL of TGF β1 was added to the FFA-containing media for a further two days of combined FFA and TGFβ1 treatment. At day 15 post seeding (after 8 days of FFA treatment and 2 days of combined FFA and TGFβ1 treatment), the media was changed to TGF β1-only treatment, with 20 ng/mL TGF β1 and without the FFA mix. […], at day 19 post seeding, the spheroids and the conditioned media were harvested for characterization. […]
Secreted albumin levels is another marker of liver health. […] The secreted albumin in the culture medium was quantified based on ELISA measurements. […]

[7] = system: NASH-induced liver spheroids; assay: Microarray gene expression profiling of NASH-induced human liver spheroids; format: cell-based
Excerpt: As described herein above and shown in FIGS. 15A-15F, the effect on the liver spheroids of treatment with disease-state induction agents such the FFA mixture or TGFβ1 and/or with therapeutic agents such as the exosomes can be assayed one marker (or a new markers) at a time with techniques such as immune-staining and ELISA. However, a much larger count (dozens, hundreds, thousands) of markers may be assay simultaneously using high-throughput techniques, such as microarray or next generation sequencing (NGS). FIG. 16A depicts a heatmap of changes in gene expression of liver spheroids based on microarray hybridization data. Microarray hybridization data was acquired as follows: After growth of liver spheroid samples and treatment with NASH-induction agents and/or with therapeutic agents as describe above, the liver spheroids were isolated, lysed, and mRNA was isolated, then converted to sequences of complementary DNA (cDNA). The cDNA samples were then applied to an Agilent® microarray and read with a microarray reader. The microarray analysis was performed for a predetermined transcriptome set of 22,473 genes (included in the microarray) using standard methods to obtain normalized expression values. […]
The gene expression levels of the liver spheroids in each of the different liver spheroid states were also represented and stored, respectively, as feature vectors (“spheroid state feature vectors”), with each element of a given spheroid state feature vector being a level of expression of one of the genes assayed in the microarray. The similarity (or lack of similarity) of the gene expression profile between different states was determined based on a measure of distance between pairs of feature vectors in an n-dimensional space, n being the number of genes represented in each of the feature vectors. […]

Row | Molecule | yield of exosomes [1] | secreted HGF level [2] | secreted IL-6 level [2] | secreted NGF level [2] | other results
1 | C=C(CC(=O)OCCCCCCCC)C(=O)O [4-OI, 4 Octyl itaconate] | higher yield | significant increase | attenuated | enhanced | –
2 | CC1=C(/C=C/C(C)=C/C=C/C(C)=C/C(=O)O)C(C)(C)CCC1 [ATRA, all-trans retinoic acid] | – | – | – | – | mRNA levels of COX-2, HIF-1, CXCR4, CCR2, VEGF, Ang-2 and Ang-4 [3]: elevated in a dose dependent manner; MSC viability [4]: significantly higher; PGE2 levels [5]: significantly increased
3 | COC(=O)/C=C/C(=O)OC [DMF, Dimethyl fumarate] | higher yield | significant increase | attenuated | increase | secreted SDF-1 level [2]: increase; secreted sFLT1 level [2]: increase
4 | COc1cc(/C=C/C(=O)CC(=O)/C=C/c2ccc(O)c(OC)c2)ccc1O [curcumin, Curcumin] | – | – | attenuated | – | –
5 | HGF: 40 ng/ml hepatic growth factor used as comparison treatment of NASH-induced liver spheroids | – | – | – | – | albumin secretion [6]: did not result in increased; recovery based on gene expression patterns, Jaccard Similarity Index coordinates ([7]; FIGS. 18A-18C gene sets): substantially more similar to the diseased state; gene expression profile of 287 liver specific genes, cluster analysis ([7]; treatment after NASH induction): most closely resembled the gene expression profile of the Diseased liver spheroid state; gene expression profile, principal component analysis ([7]; treatment at D17-D19 after NASH induction, HGF 40 ng/ml): substantially unchanged
